Measured values as given in ChEMBL document CHEMBL5512655, “Discovery of indolylacryloyl-derived oxacins as novel potential broad-spectrum antibacterial candidates” (Eur J Med Chem, 2024).
≈ marks a conversion by molar mass, not a printed value. Calls of active or inactive are those of the source. The rule behind the calls is not given here.

Legend:
[1] = test system: Staphylococcus aureus; experiment: Antibacterial activity against methicillin-resistant Staphylococcus aureus N315 assessed as inhibition of bacterial growth measured after 24 hrs incubation; assay type: functional
[2] = test system: Staphylococcus aureus; experiment: Antibacterial activity against Staphylococcus aureus assessed as inhibition of bacterial growth measured after 24 hrs incubation; assay type: functional
[3] = test system: Staphylococcus aureus; experiment: Antibacterial activity against Staphylococcus aureus ATCC 25923 assessed as inhibition of bacterial growth measured after 24 hrs incubation; assay type: functional
[4] = test system: Enterococcus faecalis; experiment: Antibacterial activity against Enterococcus faecalis assessed as inhibition of bacterial growth measured after 24 hrs incubation; assay type: functional
[5] = test system: Klebsiella pneumoniae; experiment: Antibacterial activity against Klebsiella pneumonia assessed as inhibition of bacterial growth measured after 24 hrs incubation; assay type: functional
[6] = test system: Escherichia coli; experiment: Antibacterial activity against Escherichia coli assessed as inhibition of bacterial growth measured after 24 hrs incubation; assay type: functional
[7] = test system: Escherichia coli; experiment: Antibacterial activity against Escherichia coli ATCC 25922 assessed as inhibition of bacterial growth measured after 24 hrs incubation; assay type: functional
[8] = test system: Pseudomonas aeruginosa; experiment: Antibacterial activity against Pseudomonas aeruginosa assessed as inhibition of bacterial growth measured after 24 hrs incubation; assay type: functional
[9] = test system: Pseudomonas aeruginosa; experiment: Antibacterial activity against Pseudomonas aeruginosa ATCC 27853 assessed as inhibition of bacterial growth measured after 24 hrs incubation; assay type: functional
[10] = test system: Acinetobacter baumannii; experiment: Antibacterial activity against Acinetobacter baumannii assessed as inhibition of bacterial growth measured after 24 hrs incubation; assay type: functional
[11] = test system: Enterococcus faecalis; experiment: Potency index, ratio of norfloxacin MIC to test compound MIC for antibacterial activity against Enterococcus faecalis assessed as inhibition of bacterial growth measured after 24 hrs incubation; assay type: functional
[12] = test system: Klebsiella pneumoniae; experiment: Potency index, ratio of norfloxacin MIC to test compound MIC for antibacterial activity against Klebsiella pneumonia assessed as inhibition of bacterial growth measured after 24 hrs incubation; assay type: functional
[13] = test system: Escherichia coli; experiment: Potency index, ratio of norfloxacin MIC to test compound MIC for antibacterial activity against Escherichia coli assessed as inhibition of bacterial growth measured after 24 hrs incubation; assay type: functional
[14] = test system: Escherichia coli; experiment: Potency index, ratio of norfloxacin MIC to test compound MIC for antibacterial activity against Escherichia coli ATCC 25922 assessed as inhibition of bacterial growth measured after 24 hrs incubation; assay type: functional
[15] = test system: Pseudomonas aeruginosa; experiment: Potency index, ratio of norfloxacin MIC to test compound MIC for antibacterial activity against Pseudomonas aeruginosa assessed as inhibition of bacterial growth measured after 24 hrs incubation; assay type: functional
[16] = test system: Pseudomonas aeruginosa; experiment: Potency index, ratio of norfloxacin MIC to test compound MIC for antibacterial activity against Pseudomonas aeruginosa ATCC 27853 assessed as inhibition of bacterial growth measured after 24 hrs incubation; assay type: functional
[17] = test system: Acinetobacter baumannii; experiment: Potency index, ratio of norfloxacin MIC to test compound MIC for Antibacterial activity against Acinetobacter baumannii assessed as inhibition of bacterial growth measured after 24 hrs incubation; assay type: functional
[18] = Hemolytic activity in human red blood cells assessed as hemolysis rate at 64 ug/ml relative to control; assay type: toxicity, cell-based, Erythrocyte; conditions: red blood cells (erythrocytes), at 64 µg/mL, read-out: Activity
[19] = Hemolytic activity in human red blood cells assessed as hemolysis rate at 512 ug/ml relative to control; assay type: toxicity, cell-based, Erythrocyte; conditions: red blood cells (erythrocytes), at 512 µg/mL, read-out: Activity
[20] = Cytotoxicity against human L02 cells assessed as cell viability at 16 ug/ml measured after 24 hrs relative to control; assay type: toxicity, cell-based; conditions: at 16 µg/mL, read-out: Activity
[21] = Cytotoxicity against HUVEC cells assessed as cell viability at 64 ug/ml measured after 24 hrs relative to control; assay type: toxicity, cell-based; conditions: human, at 64 µg/mL, read-out: Activity
[22] = test system: Staphylococcus aureus; experiment: Antibacterial activity against methicillin-resistant Staphylococcus aureus N315 assessed as resistance development by measuring compound concentration required to inhibit measured after 18 generations; assay type: functional
[23] = test system: Escherichia coli; experiment: Antibacterial activity against Escherichia coli assessed as resistance development measured after 11 generations; assay type: functional, organism-based
[24] = test system: Escherichia coli; experiment: Antibacterial activity against Escherichia coli assessed as resistance development by measuring compound concentration required to inhibit measured after 18 generations; assay type: functional
[25] = test system: Staphylococcus aureus; experiment: Antibacterial activity against methicillin-resistant Staphylococcus aureus N315 assessed as reduction in bacterial burden at 2 to 4 times of MIC measured upto 7 hrs by time-dependent kinetics assay; assay type: functional, organism-based
[26] = test system: Escherichia coli; experiment: Antibacterial activity against Escherichia coli assessed as reduction in bacterial burden at 2 to 4 times of MIC measured upto 7 hrs by time-dependent kinetics assay; assay type: functional, organism-based
[27] = test system: Staphylococcus aureus; experiment: Anti-biofilm effect in methicillin-resistant Staphylococcus aureus N315 assessed as biofilm destruction by measuring reduced biofilm content at MIC; assay type: functional
[28] = test system: Escherichia coli; experiment: Anti-biofilm effect in Escherichia coli assessed as biofilm destruction by measuring reduced biofilm content at MIC; assay type: functional
[29] = test system: Staphylococcus aureus; experiment: Anti-biofilm effect in methicillin-resistant Staphylococcus aureus N315 assessed as biofilm destruction rate at 6 times of MIC; assay type: functional
[30] = test system: Escherichia coli; experiment: Anti-biofilm effect in Escherichia coli assessed as biofilm destruction rate at 6 times of MIC; assay type: functional
[31] = test system: Staphylococcus aureus; experiment: Anti-biofilm effect in methicillin-resistant Staphylococcus aureus N315 assessed as inhibition of biofilm formation by measuring reduction in exo-polysaccharide content at 6 times of MIC relative to control; assay type: functional
[32] = test system: Escherichia coli; experiment: Anti-biofilm effect in Escherichia coli assessed as inhibition of biofilm formation by measuring reduction in exo-polysaccharide content at 6 times of MIC relative to control; assay type: functional
[33] = test system: Cell membrane; experiment: Induction of cell membrane damage in methicillin-resistant Staphylococcus aureus N315 assessed as increase in density of red fluorescence at 4 times of MIC by Calcein-AM/PI dual staining based fluorescence microscopy; assay type: cell membranes
[34] = test system: Cell membrane; experiment: Induction of cell membrane damage in Escherichia coli assessed as increase in density of red fluorescence at 4 times of MIC by Calcein-AM/PI dual staining based fluorescence microscopy; assay type: cell membranes
[35] = test system: Escherichia coli; experiment: Induction of ROS production in Escherichia coli assessed as fluorescence intensity by DCFH-DA (dichlorofluorescin diacetate) probe based assay; assay type: functional, organism-based
[36] = test system: Escherichia coli; experiment: Induction of ROS production in Escherichia coli assessed as fluorescence intensity at 2 times of MIC by DCFH-DA (dichlorofluorescin diacetate) probe based assay; assay type: functional
[37] = test system: Staphylococcus aureus; experiment: Induction of lipid peroxidation in methicillin-resistant Staphylococcus aureus N315 assessed as malondialdehyde (MDA) level production; assay type: functional, organism-based
[38] = test system: Escherichia coli; experiment: Induction of lipid peroxidation in Escherichia coli assessed as malondialdehyde (MDA) level production; assay type: functional, organism-based
[39] = test system: Escherichia coli; experiment: Induction of lipid peroxidation in Escherichia coli assessed as malondialdehyde (MDA) level production at 4 time of MIC; assay type: functional, organism-based
[40] = test system: Staphylococcus aureus; experiment: Reduction in metabolic activity in methicillin-resistant Staphylococcus aureus N315 by Alamar Blue assay; assay type: functional, organism-based
[41] = test system: Escherichia coli; experiment: Reduction in metabolic activity in Escherichia coli by Alamar Blue assay; assay type: functional, organism-based
[42] = test system: Staphylococcus aureus; experiment: Reduction in metabolic activity in methicillin-resistant Staphylococcus aureus N315 at 6 times of MIC by Alamar Blue assay relative to control; assay type: functional; design: scale not given: the % may be the effect or the level left
[43] = test system: Escherichia coli; experiment: Reduction in metabolic activity in Escherichia coli at 6 times of MIC by Alamar Blue assay relative to control; assay type: functional; design: scale not given: the % may be the effect or the level left
[44] = test system: Calf thymus DNA; experiment: Binding affinity to calf thymus DNA assessed as hypochromism by spectroscopic analysis; assay type: nucleic-acid assay; conditions: Bos taurus
[45] = test system: Calf thymus DNA; experiment: Binding affinity to calf thymus DNA by acridine orange staining based competitive binding assay; assay type: nucleic-acid assay; conditions: Bos taurus
[46] = test system: Calf thymus DNA; experiment: Binding affinity to calf thymus DNA assessed as DNA intercalation with drug by […] assay; assay type: nucleic-acid assay; conditions: Bos taurus

CCOC(=O)Cn1cc(/C=C(\C#N)C(=O)N2CCN(c3cc4c(cc3F)c(=O)c(C(=O)O)cn4CC)CC2)c2ccccc21 showed an MIC [1] of 0.25 µg/mL (≈ 0.417 µM), an MIC [2] of 0.25 µg/mL (≈ 0.417 µM) and an MIC [3] of 0.25 µg/mL (≈ 0.417 µM). For the same compound, the MIC [4] was 0.25 µg/mL (≈ 0.417 µM), the MIC [5] was 0.5 µg/mL (≈ 0.834 µM) and the MIC [6] was 0.25 µg/mL (≈ 0.417 µM). It also gave an MIC [7] of 0.5 µg/mL (≈ 0.834 µM), an MIC [8] of 0.5 µg/mL (≈ 0.834 µM) and an MIC [9] of 0.5 µg/mL (≈ 0.834 µM). For the same compound, the MIC [10] was 0.25 µg/mL (≈ 0.417 µM), the Ratio [11] was 1 and the Ratio [12] was 1. The Ratio [13] was 1, the Ratio [14] was 1 and the Ratio [15] was 1. For the same compound, the Ratio [16] was 1, the Ratio [17] was 1 and the hemolysis at 64 ug/ml [18] was under 5%. The hemolysis at 512 ug/ml [19] was under 5%, the viability at 24 h, 16 ug/ml [20] was 80% and the viability at 24 h, 64 ug/ml [21] was 85%. The MIC [22] was 64 µg/mL (≈ 107 µM), the Activity [23] was “inactive” and the MIC [24] was 32 µg/mL (≈ 53.4 µM). The Activity [25] was “Active”, the Activity [26] was “Active” and the “inhibition (INH)” value [27] was 68.8%. The “inhibition (INH)” value [28] was 82.7%, the “inhibition (INH)” value [29] was over 60% and the “inhibition (INH)” value [30] was over 60%. The “inhibition (INH)” value [31] was under 50%, the “inhibition (INH)” value [32] was under 50% and the Activity [33] was “Active”. For the same compound, the Activity [34] was “Active”, the Activity [35] was “Dose-Dependent Effect” and the Activity [36] was over 50%. For the same compound, the Activity [37] was “Dose-Dependent Effect”, the Activity [38] was “Dose-Dependent Effect” and the Activity [39] was “Active”. The Activity [40] was “Dose-Dependent Effect”, the Activity [41] was “Dose-Dependent Effect” and the Activity [42] was over 50%. For the same compound, the Activity [43] was over 50%, the Activity [44] was “Active” and the Activity [45] was “Active”. The Activity [46] was “Active”.
